# Test results published in patent US20030092686A1, “Method of determining the initial dose of vitamin D compounds” (priority 2000, published 2003).
# System: adult ESRD patients
# Experiment: Double-blind, randomized, 12-week trial of starting dose of paricalcitol injection (baseline PTH/80 vs 0.04 mcg/kg)
# Assay type: in vivo, human
# Conditions: for Incidences of Ca × P > 75: 2 consecutive occurrences of CaxP>75; for Median Number of Dose Adjustments: adjustments to achieve the first of 4 consecutive ≧30% decreases from baseline PTH; for Incidence(s) of Hypercalcemia: single episode, Ca>11.5 miligram/deciliter, 3x weekly, 12-week trial; for Median Days to First of 4 ≧ 30% PTH Decreases: statistically significant (P = 0.0306)
# Experimental: A double-blind, randomized, 12-week trial was conducted in 125 adult ESRD patients to determine if a starting dose of paricalcitol injection using baseline PTH/80 was equivalent in the rate of hypercalcemia (single episode, Ca>11.5 miligram/deciliter) compared to the approved initial dose (0.04 mcg/kg, dry weight). Patients were randomized (1:1) to doses by either PTH/80 or 0.04 mcg/kg. Baseline demographics and laboratory values were similar between groups. Dosing occurred 3×weekly per patient hemodialysis schedule. Dose increases of 2 mcg could occur once per 2 weeks; decreases of 2 mcg could occur once per week. Patients completed the study by reducing PTH≧30% from baseline for 4 consecutive weekly measurements, or by having a single incidence of hypercalcemia, or by completing 12 weeks of treatment. The primary analysis was a comparison of the incidence of hypercalcemia between groups. Secondary analyses included the time in days to the first of 4 consecutive≧30% decreases from baseline PTH levels, the difference in the number of dose adjustments to achieve the first of 4 consecutive≧30% decreases from baseline PTH levels, and the difference in the incidence rates of 2 consecutive occurrences of CaxP>75.
# [1] = initial dose 0.04 mcg/kg dry weight
smiles,measurement,setting,value
"C[C@H](/C=C/[C@H](C)C(C)(C)O)[C@H]1CC[C@H]2/C(=C/C=C3C[C@@H](O)C[C@H](O)C3)CCC[C@]12C [paricalcitol injection, Paricalcitol]",Mean PTH Decrease (SE),[1],−193 (24.59) pg/mL
same,Incidences of Ca × P > 75,[1],2
same,Median Number of Dose Adjustments,[1],3
same,Incidence(s) of Hypercalcemia,[1],0
same,Median Days to First of 4 ≧ 30% PTH Decreases,[1],45 days
same,Mean PTH Decrease (SE),initial dose baseline PTH/80,−259 (24.01) pg/mL
same,Incidences of Ca × P > 75,initial dose baseline PTH/80,5
same,Median Number of Dose Adjustments,initial dose baseline PTH/80,2
same,Incidence(s) of Hypercalcemia,initial dose baseline PTH/80,0
same,Median Days to First of 4 ≧ 30% PTH Decreases,initial dose baseline PTH/80,31 days
